Each structure is given as a SMILES string.

Common to all, as to format: cell-based
Assay [1] relates to A549 cells. In words: Cell viability assay (MTS) in A549 cells. Conditions: 72 h, MTS, Figure 2E. As for the experimental part:
HepG2, Huh7, H1299, HT29, AGS and A549 cells were purchased from the Korean Cell Line Bank (Seoul, Korea) and HaCaT cells were obtained from Prof. Sohee Kwon (Yonsei University, Korea). Liver cancer cells (HepG2), human keratinocyte cells (HaCaT), and lung cancer cells (A549) were grown in DMEM high-glucose medium, liver cancer cells (Huh7) and non-small cell lung cancer cells (H1299) were grown in RPMI 1640, and gastric cancer cells (AGS) were grown in Coon’s modified F12 medium. All media were supplemented with 10% FBS, 100 Units/mL penicillin, and 100 μg/mL streptomycin. All cells were incubated at 37 °C, 5% CO2 and 95% humidity.
(§1) Cell viability assay was conducted using Cell Titer 96® AQueous One Solution Cell proliferation Assay kit (Promega, Madison, WI, USA). Five cancer cells and HaCaT cells were plated in 96-well microplates with growth medium for 24 h. When cell confluency reached ~30%, cells were treated with DMSO (vehicle) and test compounds. The medium and test compounds were replaced every 24 h. To measure cell viability, the cells were incubated with MTS solution for 1 h. The absorbance was measured by using Infinite M200 microplate reader (Tecan, Männedorf, Switzerland) at 490 nm.
(§2) Figure 2 Effect of 5r on cell viability in HepG2, Huh7, AGS, H1299, A549, HaCaT, NIH3T3, and HEK293T cells. (A–H) HepG2, Huh7, AGS, H1299, A549, HaCaT, NIH3T3, and HEK293T cells were cultured with 5r at the indicated concentrations for 72 h, and medium was replaced every 24 h with freshly added 5r. Cell viability was measured by MTS analysis (mean ± S.D., n = 5). * p < 0.05, ** p < 0.01, *** p < 0.001.

Assay [2] has as its system NIH3T3 cells. In words: Cell viability assay (MTS) in NIH3T3 cells. The settings on record: 72 h, Figure 2G. The protocol:
as §1, §2

Assay [3] relates to Huh7 cells. In words: In vitro wound-healing assay in Huh7 cells. The settings on record: Figure 3. The protocol:
The suppressive effect of 5r on cell migration was assessed through in vitro wound-healing assay. HepG2 and Huh7 cells were grown to approximately 100% confluence to form a monolayer in a 96-well microplate. Wounds were formed through 96-well wound maker (Essen BioScience, Ann Arbor, MI, USA). Then, growth medium was removed and washed out twice with phosphate-buffered saline (PBS) and incubated with 200 μL of DMEM and RPMI 1640 medium containing 5r or vehicle (DMSO). Images of the wound area were taken by using IncuCyte ZOOM (Essen BioScience, Ann Arbor MI, USA), and the percentage of wound closure was measured by using IncuCyte software.
Figure 3 Inhibitory effect of 5r on cell migration in HepG2 and Huh7 cells. (A,B) In vitro wound-healing assay was performed in HepG2 and Huh7 cells (mean ± S.D., n = 3). HepG2 and Huh7 cells were treated with the indicated concentrations of 5r, and time-lapse images were acquired every 2 h after wound infliction. (C,D) Representative images were taken at 0, 48, or 72 h following administration of 5r at the indicated concentrations.

Assay [4] concerns caspase-3. In words: Caspase-3 activity assay in Huh7 cells. The settings on record: 3 µM 5r for 24 h, Figure 4B. The protocol:
HepG2 and Huh7 cells were plated in 96-black-well plate to about 40% confluence, and then 5r was treated for 24 h. To assess activity of caspase-3, the growth medium was changed with 100 μL of PBS containing 1 μM caspase-3 substrate, NucView 488, and incubated at room temperature. After 20 min, 1 μM Hoechst 33342 was treated to stain the cells. Activity of caspase-3 was suppressed by Ac-DEVD-CHO, a selective caspase-3 inhibitor. FLUOstar Omega microplate reader (BMG Labtech, Ortenberg, Germany) was used to assess the fluorescence of NucView 488 and Hoechst, and Lionheart FX Automated Microscope (BioTek, Winooski, VT, USA) was used to acquire the fluorescence microscopy images.
Figure 4 Effect of 5r on activity of caspase-3 and cleavage of PARP in HepG2 and Huh7 cells. (A,B) HepG2 and Huh7 cells were incubated with 3 µM 5r for 24 h and then incubated with 1 µM caspase-3 substrate (green) and 1 µM Hoechst 33,342 (blue) for 20 min before image acquisition. (C,D) Cells were cultured with 5r at the indicated concentrations for 24 h and then 1 μM caspase-3 substrate was treated for 20 min. Caspase-3 was inhibited by 20 μM Ac-DEVD-CHO (mean ± S.D., n = 3). (E,F) Cells were cultured with 5r at the indicated concentrations for 24 h, and expression level of PARP, cleaved-PARP and β-actin were measured by Western blot analysis. […]

Assay [5] relates to cleaved PARP. In words: Western blot analysis of cleaved PARP in HepG2 cells. Conditions: 24 h, Figure 4E,G. As for the experimental part: (§3) For Western blot analysis, HepG2 and Huh7 cells were lysed with RIPA buffer (50 mM Tris-HCl, PH 7.4, 1% Nonidet P-40, 0.25% sodium deoxycholate, 150 mM NaCl, 1 mM EDTA, 1 mM Na3VO4, and protease inhibitor). Lysed samples were centrifuged at 13,000 RPM for 20 min at 4 °C to remove the cell debris, and equal amounts (60 μg protein/lane) of supernatant protein were divided by 4–12% Tris Glycine Precast Gel (KOMA BIOTECH, Seoul, Korea). Then, PVDF membranes (Millipore, Billerica, MA, USA) were used to transfer the separated proteins. Membrane blocking was performed by Tris-buffered saline with 0.1% Tween 20 (TBST) containing 5% bovine serum albumin (BSA) at room temperature for 50 min. The membranes were incubated with primary antibodies overnight at 4 °C with the indicated primary antibodies: anti-cleaved PARP (BD Biosciences) and anti-β-actin (Santa Cruz Biotechnology, Dallas, TX, USA). […] After 1 h, membranes were detected by using ECL Plus Western blotting detection system (GE Healthcare, Piscataway, NJ, USA).
(§4) Figure 4 Effect of 5r on activity of caspase-3 and cleavage of PARP in HepG2 and Huh7 cells. […] (E,F) Cells were cultured with 5r at the indicated concentrations for 24 h, and expression level of PARP, cleaved-PARP and β-actin were measured by Western blot analysis. […]
(In general: A western blot detects proteins with antibodies after separation by electrophoresis.)

The subject of assay [6] is cleaved PARP. In words: Western blot analysis of cleaved PARP in Huh7 cells. The settings on record: 24 h, Figure 4F,H. As for the experimental part: as §3, §4

Consider `N#Cc1c2c3cccn3c(-c3ccccc3O)nc2n2ccccc12` [Compound 5r, 5-(2-Hydroxyphenyl)pyrrolo[1′,2′:1,6]pyrimido[5,4-b]indolizine-12-carbonitrile], for which the “Effect on cell viability in A549 cells” value in assay [1] is recorded as “weak effect”. Also, in assay [2], the “Effect on cell viability in non-cancerous NIH3T3 cells” value is recorded as “weakly decreased cell viability”. The “Effect on cell migration (wound closure) in Huh7 cells” value in assay [3] is “significantly inhibited cell migration in a dose-dependent manner”. Moreover, the “Caspase-3 activity in Huh7 cells” value in assay [4] is “potently increased caspase-3 activity”. The “Expression level of cleaved PARP in HepG2 cells” value in assay [5] is listed as “increased the expression level of cleaved PARP in a dose-dependent manner”. In assay [6], the “Expression level of cleaved PARP in Huh7 cells” value is on record as “increased the expression level of cleaved PARP in a dose-dependent manner”.

For the origin of these results see publication PMC9694334, “Synthesis and Biological Evaluation of a Fused Structure of Indolizine and Pyrrolo[1,2-c]pyrimidine: Identification of Its Potent Anticancer Activity against Liver Cancer Cells” (Pharmaceuticals, 2022).
